From PubChem BioAssay (NCI)
Several values for one entry are separate records, joined by “and”; a condition that tells them apart may be missing. Identical values can stand only once.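 Results reflect a 48-hour exposure of cells in 96-well plates to compound at five concentrations. The concentration for 50% growth inhibition is given as GI50. Definition used: TGI = concentration required for complete inhibition of growth.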

Assays:
Assay in all cases: inhibition of tumour cell growth, NCI panel, 48 h
[1] = tested on: OVCAR-5 ovarian
[2] = tested on: HL-60(TB) leukemia
[3] = tested on: T-47D breast
[4] = tested on: OVCAR-3 ovarian
[5] = tested on: SK-MEL-5 melanoma
[6] = tested on: BT-549 breast
[7] = tested on: MDA-MB-435
[8] = tested on: ACHN renal
[9] = tested on: HCT-15 colon
[10] = tested on: 786-0 renal

COc1cc2c(cc1OCCCN1CCN(CCCOc3cc4c(cc3OC)C(=O)N3CCC[C@H]3C=N4)CC1)C=CC(C)(C)O2
GI50 [1]: 1.7 µM | TGI [1]: 3.18 µM | GI50 [2]: 0.252 µM | TGI [2]: 0.738 µM | GI50 [3]: 0.792 µM | TGI [3]: 2.43 µM | GI50 [4]: 1.36 µM | TGI [4]: 2.67 µM | GI50 [5]: 1.27 µM | TGI [5]: 2.53 µM | GI50 [6]: 0.941 µM | TGI [6]: 2.47 µM | GI50 [7]: 1.24 µM | TGI [7]: 2.55 µM

FC(F)(F)c1ccc(-c2nc(-c3nc4cc(Cl)c(Cl)cc4[nH]3)c3ccccn23)cc1
GI50 [1]: > 100 µM | TGI [1]: > 100 µM | GI50 [8]: 3.9 µM | TGI [8]: 28.5 µM | GI50 [2]: > 100 µM | TGI [2]: > 100 µM | GI50 [3]: 4.06 µM | TGI [3]: > 100 µM | GI50 [4]: 3.74 µM | TGI [4]: > 100 µM | GI50 [9]: 30.5 µM | TGI [9]: > 100 µM | GI50 [5]: 4.2 µM | TGI [5]: > 100 µM | GI50 [6]: 8.69 µM | TGI [6]: > 100 µM

CN1C/C(=C\c2cccs2)C2=NC(=S)NC(c3cccs3)C2C1 (centres undefined)
TGI [1]: > 100 µM | TGI [8]: > 100 µM | TGI [10]: > 100 µM | TGI [2]: 19.1 µM | TGI [3]: 84.5 µM | TGI [4]: > 100 µM | TGI [9]: > 100 µM | TGI [5]: > 100 µM | TGI [6]: > 100 µM | TGI [7]: > 100 µM

CCC1(O)CC(OC2CC(N(C)C)C(OC3CC4OC5CC(=O)C(C)OC5OC4C(C)O3)C(C)O2)c2c(cc3c(c2O)C(=O)c2c(O)ccc(O)c2C3=O)C1C(=O)OC (centres undefined)
GI50 [1]: 0.00138 µM and 0.00225 µM and 0.00943 µM | GI50 [8]: 0.000823 µM | TGI [3]: 0.0172 µM and 0.0152 µM | GI50 [4]: 0.00656 µM and 0.00711 µM | TGI [4]: 0.0789 µM and 0.0232 µM and < 0.0174 µM

Clc1ccc(-c2ccc(-c3nnc(CCc4nnc(-c5ccc(-c6ccc(Cl)cc6)o5)o4)o3)o2)cc1
TGI [1]: > 100 µM | TGI [8]: > 100 µM | TGI [10]: > 100 µM | TGI [3]: > 100 µM | TGI [4]: > 100 µM | TGI [9]: > 100 µM | TGI [5]: > 100 µM | TGI [6]: > 100 µM | TGI [7]: > 100 µM

Cc1ccc(S(=O)(=O)c2scc(-c3ccccc3)c2C)cc1
TGI [8]: > 100 µM | TGI [10]: > 100 µM | TGI [2]: > 100 µM | TGI [3]: > 100 µM | TGI [4]: > 100 µM | TGI [9]: > 100 µM | TGI [5]: > 100 µM | TGI [6]: > 100 µM | TGI [7]: > 100 µM

COC(=O)C(=O)C(C(=O)Nc1cccc(C)c1C)C1Sc2ccccc2NC1=O (centres undefined)
TGI [1]: > 25 µM | TGI [8]: > 25 µM | TGI [2]: > 25 µM | TGI [4]: > 25 µM | TGI [9]: > 25 µM | TGI [5]: > 25 µM

CC1=NN(C(=O)CSc2nnc(SCC(=O)N3N=C(C)CC3(O)c3ccccc3)s2)C(O)(c2ccccc2)C1 (centres undefined)
TGI [1]: > 100 µM | TGI [8]: > 100 µM | TGI [10]: > 100 µM | TGI [4]: > 100 µM | TGI [9]: > 100 µM | TGI [5]: > 100 µM | TGI [6]: 47 µM | TGI [7]: > 100 µM

CCC(C)[C@@H](NCc1ccccc1)[C@H](OCc1ccccc1)[C@@H]1COC(C)(C)O1 (some centres undefined)
TGI [1]: 90.8 µM | TGI [8]: 49.7 µM | TGI [10]: 46.3 µM | TGI [4]: > 100 µM | TGI [9]: 31.6 µM | TGI [5]: 29 µM | TGI [7]: > 100 µM

CCOC(=O)c1cnc(-n2[nH]c(C)c(CCO)c2=O)[nH]c1=O
TGI [1]: > 100 µM | TGI [8]: > 100 µM | TGI [10]: > 100 µM | TGI [2]: > 100 µM | TGI [3]: > 100 µM | TGI [4]: > 100 µM | TGI [9]: > 100 µM | TGI [5]: > 100 µM | TGI [7]: > 100 µM

O=C(Nc1cccc2ccccc12)Oc1ccccc1C1CCCCC1
TGI [1]: 32.1 µM | TGI [2]: 64.2 µM | TGI [4]: 39.5 µM | TGI [9]: 33.9 µM | TGI [5]: 28.8 µM

O=C1C(N2CCCC2)=CC(=O)c2c(O)c(N3CCCC3)c(Cl)c(O)c21
TGI [8]: > 10 µM | TGI [10]: > 10 µM | TGI [2]: > 10 µM | TGI [3]: > 10 µM | TGI [4]: > 10 µM | TGI [5]: > 10 µM | TGI [6]: > 10 µM | TGI [7]: > 10 µM

O=C(CSCC(=O)N/N=C/c1cc(I)cc(I)c1O)N/N=C/c1cc(I)cc(I)c1O
TGI [1]: 82.5 µM | TGI [8]: 32.2 µM | TGI [10]: 22.2 µM | TGI [2]: 43.5 µM | TGI [3]: > 100 µM | TGI [4]: > 100 µM | TGI [9]: > 100 µM | TGI [5]: 24.8 µM | TGI [7]: 92.9 µM

Nc1nc(N)c2ncn(CC3CCC(CO)C3)c2n1 (centres undefined)
TGI [1]: > 100 µM | TGI [8]: > 100 µM | TGI [10]: > 100 µM | TGI [3]: > 100 µM | TGI [4]: > 100 µM | TGI [9]: > 100 µM | TGI [5]: > 100 µM | TGI [7]: > 100 µM

Cc1[nH]c2ncn(/N=C/c3ccccc3O)c(=N)c2c1Cc1ccccc1
TGI [1]: > 100 µM | TGI [8]: > 100 µM | TGI [10]: > 100 µM | TGI [2]: 66.8 µM | TGI [3]: > 100 µM | TGI [4]: 71.8 µM | TGI [9]: > 100 µM | TGI [6]: > 100 µM | TGI [7]: 48.8 µM

O=C1c2c(F)c(F)c(F)c(F)c2SC2=NCCN12
TGI [1]: 29.2 µM | TGI [8]: 21.1 µM | TGI [10]: 19.8 µM | TGI [3]: 29 µM | TGI [4]: 9.21 µM | TGI [9]: 7.56 µM | TGI [5]: 28.4 µM | TGI [6]: 28 µM | TGI [7]: 8.59 µM

COc1cccc2c1OC1c3ccccc3OCC1C2 (centres undefined)
TGI [1]: > 100 µM | TGI [10]: > 100 µM | TGI [3]: > 100 µM | TGI [4]: > 100 µM | TGI [9]: > 100 µM | TGI [5]: > 100 µM | TGI [6]: > 100 µM | TGI [7]: > 100 µM

O=S(=O)(c1ccc(Br)cc1)n1c2ccc(Br)cc2c2nc3ccccc3nc21
TGI [1]: > 100 µM | TGI [8]: > 100 µM | TGI [10]: > 100 µM | TGI [3]: > 100 µM | TGI [4]: > 100 µM | TGI [9]: > 100 µM | TGI [5]: > 100 µM | TGI [6]: > 100 µM | TGI [7]: > 100 µM

c1csc(-c2ccc(-c3ccc(-c4ccc(-c5cccs5)s4)s3)s2)c1
TGI [1]: > 100 µM | TGI [8]: > 100 µM | TGI [10]: > 100 µM | TGI [2]: 53.6 µM | TGI [4]: > 100 µM | TGI [9]: > 100 µM | TGI [5]: > 100 µM | TGI [7]: > 100 µM

CCCCNC1CCC2(SCCS2)c2[nH]c3ccccc3c21 (centres undefined)
TGI [1]: > 100 µM | TGI [8]: > 100 µM | TGI [10]: 80 µM | TGI [2]: 8.05 µM | TGI [3]: 6.23 µM | TGI [4]: 46.7 µM | TGI [5]: 18 µM | TGI [6]: > 100 µM | TGI [7]: > 49.6 µM

COC(=O)c1cn(CCCC(=O)O)nn1
TGI [8]: > 100 µM | TGI [10]: > 100 µM | TGI [3]: > 100 µM | TGI [9]: > 100 µM | TGI [5]: > 100 µM | TGI [6]: > 100 µM | TGI [7]: > 100 µM

CCOC(=O)CCCn1nnc(C(=O)OCC)c1C(=O)OCC
TGI [8]: > 100 µM | TGI [10]: > 100 µM | TGI [3]: > 100 µM | TGI [9]: > 100 µM | TGI [5]: > 100 µM | TGI [6]: > 100 µM | TGI [7]: > 100 µM

CC(=O)NC1C(OCc2ccccc2)OC(CO)C(O)C1OCC(=O)NC(C)C(=O)NC(CCC(=O)NCCCCNc1ccc([N+](=O)[O-])c2[nH]c3ccccc3c(=O)c12)C(N)=O (centres undefined)
TGI [1]: > 100 µM | TGI [8]: > 100 µM | TGI [10]: > 100 µM | TGI [2]: > 100 µM | TGI [3]: > 100 µM | TGI [4]: > 100 µM | TGI [9]: > 100 µM | TGI [6]: > 100 µM | TGI [7]: > 100 µM

O=C(O)CCCl
TGI [1]: > 5000 µM | TGI [8]: > 5000 µM | TGI [10]: > 5000 µM | TGI [2]: > 5000 µM | TGI [9]: > 5000 µM | TGI [5]: > 5000 µM
